Experimental data taken from article PMC4332533 (Neuropharmacology, 2014).

Tests used:
α3Y168Cβ2D190C receptor = α3Y168Cβ2D190C receptor (Rattus norvegicus, UniProt P04757+P12390, D216C/Y195C); test: Macroscopic evoked currents, two-electrode voltage-clamp, Xenopus laevis oocytes; assay type: cell-based; details: ACh alone; Hill fit; naive oocytes
α3Y168Cβ2 receptor = α3Y168Cβ2 receptor (Rattus norvegicus, UniProt P04757+P12390, Y195C); test: as above; assay type: cell-based; details: ACh alone; Hill fit
α3β2D190C receptor = α3β2D190C receptor (Rattus norvegicus, UniProt P04757+P12390, D216C); test: as above; assay type: cell-based; details: ACh alone; Hill fit
α3Y168Fβ2 receptor = α3Y168Fβ2 receptor (Rattus norvegicus, UniProt P04757+P12390, Y195F); test: as above; assay type: cell-based; details: ACh alone; Hill fit
α3β2D190Q receptor = α3β2D190Q receptor (Rattus norvegicus, UniProt P04757+P12390, D216Q); test: as above; assay type: cell-based; details: ACh alone; Hill fit
α3Y168Fβ2D190Q receptor = α3Y168Fβ2D190Q receptor (Rattus norvegicus, UniProt P04757+P12390, D216Q/Y195F); test: as above; assay type: cell-based; details: ACh alone
α3S125Yβ2W149A receptor = α3S125Yβ2W149A receptor (Rattus norvegicus, UniProt P04757+P12390, S152Y/W175A); test: as above; assay type: cell-based; details: ACh alone
α3S125Cβ2 receptor = α3S125Cβ2 receptor (Rattus norvegicus, UniProt P04757+P12390, S152C); test: as above; assay type: cell-based; details: ACh alone; Hill fit
α3β2Q39C receptor = α3β2Q39C receptor (Rattus norvegicus, UniProt P04757+P12390, Q65C); test: as above; assay type: cell-based
α3Q37Cβ2 receptor = α3Q37Cβ2 receptor (Rattus norvegicus, UniProt P04757+P12390, Q64C); test: as above; assay type: cell-based; details: ACh alone; Hill fit
α3β2A127C receptor = α3β2A127C receptor (Rattus norvegicus, UniProt P04757+P12390, A153C); test: as above; assay type: cell-based; details: ACh alone; Hill fit
α3Q37Cβ2A127C receptor = α3Q37Cβ2A127C receptor (Rattus norvegicus, UniProt P04757+P12390, A153C/Q64C); test: as above; assay type: cell-based; details: ACh alone
α3β2A127Y receptor = α3β2A127Y receptor (Rattus norvegicus, UniProt P04757+P12390, A153Y); test: as above; assay type: cell-based; details: ACh alone; Hill fit
α3S125Yβ2A127Y receptor = α3S125Yβ2A127Y receptor (Rattus norvegicus, UniProt P04757+P12390, A153Y/S152Y); test: as above; assay type: cell-based; details: ACh alone
α3E173Cβ2 receptor = α3E173Cβ2 receptor (Rattus norvegicus, UniProt P04757+P12390, E200C); test: as above; assay type: cell-based; details: ACh alone; Hill fit
α3β2R46C receptor = α3β2R46C receptor (Rattus norvegicus, UniProt P04757+P12390, R72C); test: as above; assay type: cell-based; details: ACh alone; Hill fit
α3E173Cβ2R46C receptor = α3E173Cβ2R46C receptor (Rattus norvegicus, UniProt P04757+P12390, E200C/R46C); test: as above; assay type: cell-based
α3E173Aβ2 receptor = α3E173Aβ2 receptor (Rattus norvegicus, UniProt P04757+P12390, E200A); test: as above; assay type: cell-based; details: ACh alone; Hill fit
α3β2R46V receptor = α3β2R46V receptor (Rattus norvegicus, UniProt P04757+P12390, R72V); test: as above; assay type: cell-based; details: ACh alone; Hill fit
α3E173Aβ2R46V receptor = α3E173Aβ2R46V receptor (Rattus norvegicus, UniProt P04757+P12390, E200A/R46V); test: as above; assay type: cell-based
α3β2W149A receptor = details: read-out: EC50 (ACh Activation); ACh alone; Hill fit; cited from earlier work
α3S125Cβ2Q39C receptor = α3S125Cβ2Q39C receptor (Rattus norvegicus, UniProt P04757+P12390, Q65C/S152C); test: Macroscopic evoked currents, two-electrode voltage-clamp, Xenopus laevis oocytes
[1] = thermodynamic cycle Ω from EC50s, ACh alone, location M4

α3E173Cβ2R46C receptor, sequence (P04757 26-499 E200C): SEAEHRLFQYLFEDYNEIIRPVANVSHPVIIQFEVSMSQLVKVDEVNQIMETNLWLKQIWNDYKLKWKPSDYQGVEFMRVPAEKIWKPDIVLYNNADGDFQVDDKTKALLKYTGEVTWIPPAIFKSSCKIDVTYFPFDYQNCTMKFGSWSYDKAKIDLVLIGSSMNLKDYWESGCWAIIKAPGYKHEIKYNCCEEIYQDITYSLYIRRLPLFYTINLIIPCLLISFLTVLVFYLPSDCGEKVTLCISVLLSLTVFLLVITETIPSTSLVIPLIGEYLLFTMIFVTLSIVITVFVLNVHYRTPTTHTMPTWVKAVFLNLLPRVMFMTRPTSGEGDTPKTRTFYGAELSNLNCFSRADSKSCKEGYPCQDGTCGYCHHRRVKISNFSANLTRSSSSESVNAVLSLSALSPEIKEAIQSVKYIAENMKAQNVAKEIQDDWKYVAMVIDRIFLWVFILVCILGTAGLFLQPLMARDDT
α3E173Cβ2R46C receptor, sequence (P12390 25-500 R46C): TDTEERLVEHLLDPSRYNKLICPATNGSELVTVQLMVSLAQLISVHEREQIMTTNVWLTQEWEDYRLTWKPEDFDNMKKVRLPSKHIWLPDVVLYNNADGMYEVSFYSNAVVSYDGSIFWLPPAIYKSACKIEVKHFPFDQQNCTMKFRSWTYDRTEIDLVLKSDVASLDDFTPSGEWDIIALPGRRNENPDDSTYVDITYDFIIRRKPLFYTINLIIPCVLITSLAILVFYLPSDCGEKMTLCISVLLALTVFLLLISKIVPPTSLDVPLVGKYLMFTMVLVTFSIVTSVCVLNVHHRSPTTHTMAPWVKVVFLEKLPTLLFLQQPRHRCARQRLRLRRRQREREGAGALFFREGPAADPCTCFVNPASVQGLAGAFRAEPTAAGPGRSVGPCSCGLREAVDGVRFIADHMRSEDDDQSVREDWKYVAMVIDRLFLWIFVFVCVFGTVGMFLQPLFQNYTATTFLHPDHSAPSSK
α3S125Cβ2Q39C receptor, sequence (P04757 26-499 S152C): as the sequence (P04757 26-499 E200C) above, with S127C, C175E counted along it
α3S125Cβ2Q39C receptor, sequence (P12390 25-500 Q65C): as the sequence (P12390 25-500 R46C) above, with C22R, Q41C counted along it
α3E173Aβ2R46V receptor, sequence (P04757 26-499 E200A): as the sequence (P04757 26-499 E200C) above, with C175A counted along it
α3E173Aβ2R46V receptor, sequence (P12390 25-500 R46V): as the sequence (P12390 25-500 R46C) above, with C22V counted along it
α3S125Yβ2A127Y receptor, sequence (P04757 26-499 S152Y): as the sequence (P04757 26-499 E200C) above, with S127Y, C175E counted along it
α3S125Yβ2A127Y receptor, sequence (P12390 25-500 A153Y): as the sequence (P12390 25-500 R46C) above, with C22R, A129Y counted along it
α3S125Yβ2W149A receptor, sequence (P04757 26-499 S152Y): as the sequence (P04757 26-499 E200C) above, with S127Y, C175E counted along it
α3S125Yβ2W149A receptor, sequence (P12390 25-500 W175A): as the sequence (P12390 25-500 R46C) above, with C22R, W151A counted along it

## CC(=O)OCC[N+](C)(C)C [ACh, acetylcholine]
α3Y168Cβ2D190C receptor
  nH (ACh Activation): 0.68 ± 0.08 [10]
α3Y168Cβ2 receptor
  nH (ACh Activation): 0.70 ± 0.11 [11]
α3β2D190C receptor
  nH (ACh Activation): 1.05 ± 0.14 [9]
α3Y168Fβ2 receptor
  nH (ACh Activation): 0.61 ± 0.04 [12]
α3β2D190Q receptor
  nH (ACh Activation): 1.00 ± 0.15 [8]
α3Y168Fβ2D190Q receptor; Hill fit
  nH (ACh Activation): 0.83 ± 0.09 [11]
α3Y168Fβ2D190Q receptor; thermodynamic cycle Ω from EC50s, location M1
  Ω(ACh): 18
α3S125Yβ2W149A receptor; Hill fit
  nH (ACh Activation): 0.61 ± 0.10 [6]
α3S125Yβ2W149A receptor; thermodynamic cycle Ω from EC50s, location A2
  Ω(ACh): 0.98
α3S125Cβ2 receptor
  nH (ACh Activation): 0.64 ± 0.13 [5–7]
α3β2Q39C receptor; ACh alone, Hill fit
  nH (ACh Activation): 0.78 ± 0.12 [4]
α3β2Q39C receptor; from Table 2
  increase in EC50 for ACh activation vs wild type: 2 fold
α3Q37Cβ2 receptor
  nH (ACh Activation): 1.67 ± 0.44 [4]
α3β2A127C receptor
  nH (ACh Activation): 2.09 ± 0.34 [4]
α3Q37Cβ2A127C receptor; Hill fit, naive oocytes
  nH (ACh Activation): 0.97 ± 0.13 [6]
α3Q37Cβ2A127C receptor; thermodynamic cycle Ω from EC50s, location M3
  Ω(ACh): 0.64
α3β2A127Y receptor
  nH (ACh Activation): 1.46 ± 0.20 [5]
α3S125Yβ2A127Y receptor; Hill fit
  nH (ACh Activation): 1.06 ± 0.19 [3]
α3S125Yβ2A127Y receptor; thermodynamic cycle Ω from EC50s, location A2/M3
  Ω(ACh): 3.2
α3E173Cβ2 receptor
  nH (ACh Activation): 1.16 ± 0.12 [7]
α3β2R46C receptor
  nH (ACh Activation): 0.88 ± 0.13 [5]
α3E173Cβ2R46C receptor; 2 mM ACh, n = 8, one successful expression attempt
  Iaverage evoked by ACh: 60 ± 10 nA
α3E173Cβ2R46C receptor; ACh alone, Hill fit
  nH (ACh Activation): 0.85 ± 0.10 [5–6]
α3E173Cβ2R46C receptor; [1]
  Ω(ACh): 2.4
α3E173Aβ2 receptor
  nH (ACh Activation): 1.77 ± 0.26 [3–6]
α3β2R46V receptor
  nH (ACh Activation): 0.92 ± 0.14 [5–7]
α3E173Aβ2R46V receptor; 800 µM ACh, n = 8
  Iaverage evoked by ACh: 990 ± 130 nA
α3E173Aβ2R46V receptor; ACh alone, Hill fit
  nH (ACh Activation): 0.82 ± 0.06 [7–8]
α3E173Aβ2R46V receptor; [1]
  Ω(ACh): 15
α3β2W149A receptor
  EC50: 40 ± 6 µM
α3S125Cβ2Q39C receptor; ACh alone, Hill fit, naive oocytes
  nH (ACh Activation): 0.66 ± 0.09 [3–7]
α3S125Cβ2Q39C receptor; from Table 2
  decrease in EC50 for ACh activation vs wild type: 60 fold
α3S125Cβ2Q39C receptor; thermodynamic cycle Ω from EC50s, ACh alone, location A2
  Ω(ACh): 0.16
